In EP0079141A1, “Aminoresorcinol derivatives” (ONO PHARMACEUTICAL CO., LTD., priority 1981, dated 1983):
Counter-ions that a name gives are not always drawn.

Key:
5-lipoxygenase [1] = target: T1, 5-lipoxygenase (Cavia porcellus, UniProt A0A286X958); assay: Enzyme assay using the 105,000 x g supernate of sonicated polymorphonuclear leukocytes: production of 5-HETE, 5,12-diHETE and LTB; format: biochemical; details: supernate enzyme of guinea pig polymorphonuclear leukocytes, 5 min at 30°C, 1 mM calcium chloride, read-out: concentration for a 50% inhibition of 5-lipoxygenase, i.e. IC50
T1 sequence (A0A286X958 1-674): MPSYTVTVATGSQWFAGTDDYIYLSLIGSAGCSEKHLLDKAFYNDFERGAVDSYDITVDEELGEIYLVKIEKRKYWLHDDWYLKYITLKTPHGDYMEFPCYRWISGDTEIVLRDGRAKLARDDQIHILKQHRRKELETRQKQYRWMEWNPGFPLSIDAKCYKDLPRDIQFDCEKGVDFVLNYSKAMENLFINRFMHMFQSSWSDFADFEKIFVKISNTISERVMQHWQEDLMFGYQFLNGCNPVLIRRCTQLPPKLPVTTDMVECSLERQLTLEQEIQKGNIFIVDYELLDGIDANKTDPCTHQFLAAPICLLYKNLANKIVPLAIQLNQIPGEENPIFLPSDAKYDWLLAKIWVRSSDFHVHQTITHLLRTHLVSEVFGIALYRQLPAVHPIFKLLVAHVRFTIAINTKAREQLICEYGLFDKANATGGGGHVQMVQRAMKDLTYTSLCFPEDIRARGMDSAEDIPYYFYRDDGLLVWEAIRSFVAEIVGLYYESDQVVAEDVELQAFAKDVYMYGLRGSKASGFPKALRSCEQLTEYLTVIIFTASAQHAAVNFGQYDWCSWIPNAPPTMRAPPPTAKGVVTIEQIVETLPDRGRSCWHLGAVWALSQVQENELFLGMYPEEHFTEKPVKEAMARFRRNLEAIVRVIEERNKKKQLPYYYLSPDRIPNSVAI
Protocol: Further, in another assay system, the inhibitory activity of compounds of the present invention on 5-lipoxygenase only was also evaluated by using an enzyme prepared from polymorphonuclear leukocytes of guinea pig. Guinea pig was treated by casein and harvested polymcrphonuclear leukocytes from cavity were sonicated, followed by the centrifugation at 105,000 x g. The supernate was used as an enzyme throughout this work. The supernate (100 - 500 µg of protein) was incubated for 5 minutes at 30°C with [^14C] arachidonic acid and 1 mM calcium chloride in the presence or in the absence of test compound. The reaction was terminated by the addition of ether.

5-lipoxygenase [2] = target: T1, 5-lipoxygenase; assay: Screening assay using polymorphonuclear leukocytes: production of 5-HETE from [14C] arachidonic acid; format: cell-based; details: intact polymorphonuclear leukocytes from guinea pig, 5 min preincubation and 5 min incubation at 37°C, read-out: concentration for 50% inhibition on 5-lipoxygenase
Protocol: The experiments for screening using polymorphonuclear leukocytes were carried out as follows: The reaction mixture (0.1 ml) containing 5 µmole of potassium phosphate at pE 7.4, 0.1 µmole of calcium chloride, polymorphonuclear leukocytes prepared from guinea pigs (4 x 10^7 cells) and test compound, was preincubated for 5 minutes at 37°C. The reaction was started by the addition of [^14C) arachidonic acid (2.2 x 10^5 dpm, 1.8 nmole), followed by the incubation at 37°C for 5 minutes. The reaction was terminated by the addition of 0.3 ml of a mixture of ether/methanol/lM citric acid (30/4/1). The organic phase (20 µl) was applied to silica gel plate. Thin layer chromatography was performed to separate each product with solvent system of ether/petroleum ether/acetic acid (85/15/0.1).
Activity of 5-lipoxygenase and cyclooxygenase were calculated from the measurements of the production of 5-HETE, and 12L-hydroxy-5,8,lC-heptatrienoic acid (i.e. HHT) or thromboxane B2 (i.e. TXB2), respectively [it has been known that HHT and TXB2 are the last products of the system concerning cyclooxygenase in the arachidonate cascade]. The concentrations for 50% inhibitions on 5-lipoxygenase and on cyclooxygenase were evaluated by using the concentration of compounds of the present invention required 50% inhibitions on the productions of 5-HETE, and HHT or TXB2, respectively.

| Compound | IC50 (5-lipoxygenase [1]) | IC50 (5-lipoxygenase [2]) |
| --- | --- | --- |
| Nc1c(O)c(Cl)cc(C(=O)c2ccc(Cl)cc2)c1O [2-Amino-4-chloro-6-(4-chlorobenzoyl)resorcinol hydrochloride] | 2630 nM |  |
| COC(c1ccc(Cl)cc1)c1cc(Cl)c(O)c(N)c1O (centres unmarked) [2-Amino-4-chloro-6-(a-methoxy-4-chlorobenzyl)resorcinol hydrochloride] | 2000 nM |  |
| Nc1c(O)ccc(C(=O)c2ccccc2)c1O [2-Amino-6-benzoylresorcinol hydrochloride] | 400 nM | 300 nM |
| Nc1cc(C(=O)c2ccccc2)c(O)cc1O [4-Amino-6-benzoylresorcinol hydrochloride] | 6670 nM |  |
